Series [1] deals with plasma proteins. As to conditions: cited from earlier work.
Series [2] deals with T1, immobilized human serum albumin (HSA) (Homo sapiens, UniProt P02768). Kind of series: Drug-protein binding screening by HPLC on immobilized HSA column (HSA-HPLC). Particulars: 0.5 mL/min.
Protocol: (§1) Compounds were dissolved with water or water-ethanol (with different ratio) to a concentration of 100 µg/mL. The chromatographic peak was attained on a 5 μm Chiral-HSA, 50 × 3 mm column (Chrom Tech, France), which was preceded by an on-line filter. The ChemStation for LC 3D software was used for data acquiring and handling. As a generic rapid method, an isocratic mobile phase was selected. To simulate physiology environment, a mobile phase consisting of 0.9% NaCl (pH 7.0) at a flow rate of 0.5 mL/min was used. 10 µL aliquot of analyte solution was injected to HPLC to be analyzed.
Series [3] concerns the target T1, immobilized human serum albumin (HSA). As to conditions: pH 7.
Protocol: as §1
The subject of series [4] is plasma proteins. The experiment in a line: PPB experiment by ultrafiltration. Particulars: plasma, 10, 40, 200, 100, 2000, 100 ng/mL for A, B, C, D, E, F, 37°C 30 min, Microcon YM-30, triplicates; for fraction unbound at 30 min: plasma, PPB by ultrafiltration.
Protocol: (§2) PPB Experiment for Test Compounds by Ultrafiltration
(§3) The stock solution (1.0 or 2 mg/mL) of test compounds was prepared by dissolving appropriate amount of compounds in water-methanol (50 : 50, v/v) mixture. Working solution (1, 10 or 100 μg/mL) was attained by diluted stock solution with water. A different volume of the working solution was added to a 2 mL eppendorf vial and evaporated to dryness under a stream of nitrogen in the thermostatically controlled water bath maintained at 55°C for about 20 min. […] The mixture was incubated at 37°C for 30 min. […] The filtrate was analyzed for the drug content by HPLC-MS.
(§4) The concentration of the filtrate was analyzed by HPLC-MS. […] The PPB by ultrafiltration was performed in triplicates for all the compounds studied.
Series [5] deals with human serum albumin (HSA) (Homo sapiens, UniProt P02768). The experiment in a line: Drug-protein binding screening by HPLC on immobilized HSA column (HSA-HPLC). Particulars: human, pH 7.
Protocol: as §1
In series [6] the test system is plasma proteins. Kind of series: in vitro.
Protocol: as §2, §3, §4
Setting [7] is: reported PPB values of reference compounds, ref not printed.
Where [8] appears, read: reference compounds, Chiral-HSA 50 × 3 mm column, mobile phase 0.9% NaCl (pH 7.0), 100 µg/mL, 10 µL injected.
Setting [9] is: test compounds, Chiral-HSA column, 0.9% NaCl (pH 7.0).

Where a name gives a salt, the structure may show the parent alone. Read-outs that look alike come from different tables or passages of the source. Non-standard residues stand in square brackets, D forms with d. Residues, ends and D or L forms follow the SMILES beside them. Phe(4-Cl) = N[CH](Cc1ccc(Cl)cc1)C(=O)O; 2Nal = N[CH](Cc1ccc2ccccc2c1)C(=O)O; 3Pal = N[CH](Cc1cccnc1)C(=O)O Where only a bound is given, the exact number is not on record here.

T1 sequence (P02768 25-609): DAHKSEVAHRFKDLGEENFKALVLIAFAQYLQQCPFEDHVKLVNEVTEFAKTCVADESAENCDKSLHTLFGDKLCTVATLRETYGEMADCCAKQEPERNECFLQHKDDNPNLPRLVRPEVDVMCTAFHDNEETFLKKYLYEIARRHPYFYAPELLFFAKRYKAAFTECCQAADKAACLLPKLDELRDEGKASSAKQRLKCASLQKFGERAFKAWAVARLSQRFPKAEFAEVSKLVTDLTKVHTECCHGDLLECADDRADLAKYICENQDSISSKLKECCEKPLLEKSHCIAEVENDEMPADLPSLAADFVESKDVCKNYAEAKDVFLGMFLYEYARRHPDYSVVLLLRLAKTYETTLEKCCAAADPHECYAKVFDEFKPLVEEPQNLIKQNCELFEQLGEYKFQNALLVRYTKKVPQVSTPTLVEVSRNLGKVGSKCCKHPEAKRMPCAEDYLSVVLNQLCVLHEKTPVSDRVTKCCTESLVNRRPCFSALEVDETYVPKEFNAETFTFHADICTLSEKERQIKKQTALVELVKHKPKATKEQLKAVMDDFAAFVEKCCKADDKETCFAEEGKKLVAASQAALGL
human serum albumin (HSA), sequence (P02768 25-609): as above

In the case of `OC(Cn1cncn1)(Cn1cncn1)c1ccc(F)cc1F` [Fluconazole], in the series on plasma proteins [1] (setting [7]), the PPB from literature is listed as 11.5 (11-12) %. In series [2] (setting [8]), this compound gave a Retention time of 1.07 min.

Consider `Cc1cc(C)nc(NS(=O)(=O)c2ccc(N)cc2)n1` [Sulfadimidine], for which the PPB from literature in the series on plasma proteins [1] (setting [7]) is on record as 80.0%. This compound registered a Retention time in series [2] (setting [8]) of 6.22 min.

Consider `CCC(=O)O[C@H]1CC[C@H]2[C@@H]3CCC4=CC(=O)CC[C@]4(C)[C@H]3CC[C@]12C` [Testosterone propionate], for which the PPB from literature in the series with plasma proteins [1] (setting [7]) is on record as 98.0%. This compound yielded a Retention time in series [3] (human) of 0.74 min.

With `NS(=O)(=O)c1cc2c(cc1C(F)(F)F)NC(Cc1ccccc1)NS2(=O)=O` (stereo not shown) [Bendroflumethiazide], in the series on plasma proteins [1] (setting [7]), the PPB from literature was 94.0%. The Retention time in series [2] (setting [8]) was 3.27 min.

Turning to `O=C1NC(=O)C(c2ccccc2)(c2ccccc2)N1` [Phenytoin sodium], the PPB from literature in the series with plasma proteins [1] (setting [7]) is given as 90.0%. The compound further showed a Retention time in series [2] (setting [8]) of 15.02 min.

As for `Nc1ccc(S(=O)(=O)Nc2ncccn2)cc1` [Sulfadiazine], the PPB from literature with plasma proteins [1] (setting [7]) was 43.0 (38–48) %. In addition, the Retention time in series [2] (setting [8]) was found to be 1.88 min.

As to `CN1CCOC(c2ccccc2)c2ccccc2C1` (stereo not shown) [Nefopam hydrochloride], the PPB from literature in the series on plasma proteins [1] (setting [7]) is reported as 73.5 (71–76) %; in the series on plasma proteins [1] (reported PPB values of reference compounds, ref not printed, listed as nefopam), 71–76%. In series [2] (setting [8]), this compound came in with a Retention time of 7.87 min.

As for `CNC(=C[N+](=O)[O-])NCCSCc1ccc(CN(C)C)o1` [Ranitidine hydrochloride], the PPB from literature with plasma proteins [1] (setting [7]) was 15.0 (12–18) %. In addition, the Retention time in series [2] (setting [8]) was found to be 1.23 min.

For the compound `Cn1c(=O)c2c(ncn2C)n(C)c1=O` [Caffeine], in the series on plasma proteins [1] (setting [7]), the PPB from literature is 22.5%. Also, the Retention time in series [2] (setting [8]) came to 1.18 min.

On to `CC(=O)OCC(=O)[C@@]1(O)CC[C@H]2[C@@H]3CCC4=CC(=O)CC[C@]4(C)[C@H]3[C@@H](O)C[C@@]21C` [Hydrocortisone acetate], for which, in the series with plasma proteins [1] (setting [7]), the PPB from literature is 90.0%. In series [2] (setting [8]), this compound came in with a Retention time of 0.73 min.

Turning to `COc1cc(C(=O)O)ccc1O` [Vanillic acid], the PPB from literature with plasma proteins [1] (setting [7]) is 56.3%. The compound also showed a Retention time in series [3] (human, 100 µg/mL) of 3.11 min.

Take `Cc1cc(SCc2cnc(-c3ccc(C(F)(F)F)cc3)nc2)ccc1OCC(=O)O` [Comp. E]: in the series on plasma proteins [4], the PPB by ultrafiltration amounted to 99.5% and the fraction unbound (in general, the share of the substance not bound to proteins or other matrix) at 30 min was 0.005. In series [5], this compound yielded a fraction unbound at 100 µg/mL of under 0.1.

For `CCOc1ccc(NC(C)=O)cc1` [Phenacetin], the PPB from literature with plasma proteins [1] (setting [7]) is given as 30.0%. Moreover, the Retention time in series [2] (setting [8]) was determined as 3.19 min.

As for `C[C@@H]1O[C@@H](OC[C@H]2O[C@@H](Oc3c(-c4ccc(O)c(O)c4)oc4cc(O)cc(O)c4c3=O)[C@H](O)[C@@H](O)[C@@H]2O)[C@H](O)[C@H](O)[C@H]1O` [Rutoside], the PPB from literature with plasma proteins [1] (setting [7]) is recorded as 85.0 (80–90) %; with plasma proteins [1] (reported PPB values of reference compounds, ref not printed, listed as rutoside), 80–90%. For the same compound, in series [2] (setting [8]), the Retention time came out at 13.43 min.

As for `O=C(C1CCCCC1)N1CC(=O)N2CCc3ccccc3C2C1` (stereo not shown) [Praziquantel], in the series with plasma proteins [1] (setting [7]), the PPB from literature is 80.0%. In series [2] (setting [8]), this compound returned a Retention time of 12.97 min.

`CC(=O)NC(Cc1ccc2ccccc2c1)C(=O)NC(Cc1ccc(Cl)cc1)C(=O)NC(Cc1ccccc1)C(=O)NC(CO)C(=O)NC(CCCNC(=N)N)C(=O)NC(Cc1cccnc1)C(=O)NC(CC(C)C)C(=O)NC(CCCNC(=N)N)C(=O)N1CCCC1C(=O)NC(C)C(N)=O` (stereo not shown) [Comp. F] (Ac-[2Nal][Phe(4-Cl)]FSR[3Pal]LRPA-NH2; configuration not given here) had a PPB by ultrafiltration in the series on plasma proteins [4] of 97.2%. The same compound registered a Retention time in series [2] (setting [9]) of 0.81 min.

`C[C@@](COC12CCN(CC1)CC2)(c1ccccc1)C1CCCC1` [Comp. A] returned a Retention time in series [3] (human, 100 µg/mL) of 0.76 min. The same compound had a fraction unbound with plasma proteins [6] of 0.218.

In the case of `CC(=O)[C@H]1CC[C@H]2[C@@H]3CCC4=CC(=O)CC[C@]4(C)[C@H]3CC[C@]12C` [Progesterone], the PPB from literature in the series with plasma proteins [1] is reported as 97.0%. The Retention time in series [2] (setting [8]) is listed as 50.02 min.

With `Oc1cc(O)c2c(c1)O[C@H](c1ccc(O)c(O)c1)[C@@H](O)C2` [Catechuic acid], the PPB from literature in the series with plasma proteins [1] (setting [7]) is given as 20.7%. Also, in series [2] (setting [8]), the Retention time worked out at 1.94 min.

In the series with plasma proteins [4], `CCN(CC)Cc1cc(-c2nc3c(Cl)nnc(OC)c3n2C)ccc1O` [Comp. C] showed a PPB by ultrafiltration of 51.0% and a fraction unbound at 30 min of 0.485. Moreover, the fraction unbound at 100 µg/mL in series [5] was over 0.1. This compound also returned a Retention time in series [2] (setting [9]) of 1.75 min.

For the compound `O=C(O)/C=C/c1ccc(O)c(O)c1` [Caffeic acid], the PPB from literature in the series on plasma proteins [1] (setting [7]) is on record as 66.0%. Moreover, in series [2] (setting [8]), the Retention time was determined as 4.02 min.

For the compound `COC(=O)[C@H]1[C@H]2C[C@@H]3c4[nH]c5cc(OC)ccc5c4CCN3C[C@H]2C[C@@H](OC(=O)c2cc(OC)c(OC)c(OC)c2)[C@@H]1OC` [Reserpine], in the series on plasma proteins [1] (setting [7]), the PPB from literature was 96.0%. Also, the Retention time in series [2] (setting [8]) was 0.71 min.

For the compound `O=c1c(O)c(-c2ccc(O)c(O)c2)oc2cc(O)cc(O)c12` [Quercetin], the PPB from literature in the series with plasma proteins [1] (setting [7]) is recorded as 98.0%. The compound further showed a Retention time in series [2] (setting [8]) of 0.72 min.

In turn, `CC(C)[C@]12O[C@H]1[C@@H]1O[C@]13[C@]1(O[C@H]1C[C@H]1C4=C(CC[C@@]13C)C(=O)OC4)[C@@H]2O` [Comp. B] gave a fraction unbound at 30 min in the series with plasma proteins [4] of 0.784. The compound also displayed a Retention time in series [2] (setting [9]) of 1.70 min.

In the case of `CCN(CC)CCOc1ccc(C(=C(Cl)c2ccccc2)c2ccccc2)cc1` [clomifene citrate], the Retention time in series [2] (setting [8]) is over 240 min.

As for `O=C(O)c1ccccc1O` [Salicylic acid], the PPB from literature in the series on plasma proteins [1] (setting [7]) is given as 85.0 (80–90) %.

For the compound `CN(C)CCC(c1ccc(Cl)cc1)c1ccccn1` (stereo not shown) [Chlorphenamine maleate], the PPB from literature in the series with plasma proteins [1] (setting [7]) is on record as 37.5 (25–50) %. In series [2] (setting [8]), this compound showed a Retention time of 5.93 min.

In the case of `CC(C)NCC(O)COc1cccc2ccccc12` (stereo not shown) [Propranolol hydrochloride], the PPB from literature is listed as 92.5 (90–95) % in the series on plasma proteins [1] (setting [7]) and 90–95% in the series with plasma proteins [1] (reported PPB values of reference compounds, ref not printed, listed as propranolol hydrochloride). This compound registered a Retention time in series [2] (setting [8]) of 5.21 min.

On to `COc1cc(/C=C/C(=O)O)ccc1O` [Ferulic acid], for which, in the series on plasma proteins [1] (setting [7]), the PPB from literature is given as 20.6%. The compound further gave a Retention time in series [3] of 1.79 min.

`Cc1nc(C)c(C)nc1C.Cl` [Chuanxiongzine hydrochloride]: the PPB from literature in the series with plasma proteins [1] (setting [7]) is 44.3%. Moreover, in series [3], the Retention time is given as 2.23 min.

The record behind these values is article PMC3625562, “Rapid Screening of Drug-Protein Binding Using High-Performance Affinity Chromatography with Columns Containing Immobilized Human Serum Albumin” (Journal of Analytical Methods in Chemistry, 2013).
